Assay results published in US20070154538A1, “Removal of fat cells by PDT” (CeramOptec GmbH, priority 2005, published 2007).

Test: solubility of the photosensitizer in triglycerides
Type: physicochemical
Details: the main component of adipose cells

Oc1cccc(-c2c3nc(c(-c4cccc(O)c4)c4ccc([nH]4)c(-c4cccc(O)c4)c4nc(c(-c5cccc(O)c5)c5ccc2[nH]5)CC4)C=C3)c1 [mTHPC, temoporfin]
solubility level in the triglycerides: low solubility level
